The assay deals with PIAS4. In words: PIAS4 protein half-life study (cycloheximide) in MLE cells. The settings on record: compound 5 μM for 18 h; FIG. 15F. It counts as cell-based, murine. The text has this: FIG. 9A. PIAS4 protein half-life study in MLE cells transfected with Empty plasmid or Ubiquitin plasmid. FIG. 9B. PIAS4 protein half-life study with MG132 or Leupeptin. FIG. 9C. Immunoblots showing levels of PIAS4 proteins and V5 after ectopic FIEL1 or UBE3B plasmid expression. FIG. 9D. Immunoblots showing levels of FIEL1 proteins after ectopic FIEL1 plasmid expression in MLE, HeLa, and 293T cells. FIG. 9E. Immunoblots showing levels of PIAS4 proteins and V5 after ectopic FIEL1 plasmid expression in HeLa and 293T cells. FIG. 9F. MLE cells were transfected with an inducible control or FIEL1 plasmid under control of exogenous doxycycline. Cells were treated with doxycycline in a dose dependent manner. Cells were then collected and cell lysates were immunoblotted for FIEL1 and PIAS4. FIG. 9G. MRC5 cells were exposed to TGFβ for 24 h before being assayed for PIAS4 and FIEL1 protein half-lives.
FIG. 15A. Diagram of the BC-1485 synthesis process. FIGS. 15B-15C. Docking studies of the lead compound, BC-1485, interacting with the FIEL1-HECT domain. FIG. 15D. MRC5 cells were treated with the compound at various doses; cells were also co-treated with TGFβ at 2 ng/ml. 18 h later, cells were collected and assayed for α-SMA expression. FIG. 15E. MRC5 cells were seeded in 35 mm glass bottom dishes before co-treatment with TGFβ at 2 ng/ml and BC-1480 or BC1485 at 5μM. FIG. 15F. PIAS4 protein half-life determination after BC-1480 or BC1485 treatment at 5μM for 18 h. FIG. 15G. PIAS4 and KIAA0317 mRNA analysis after BC1485 treatment for 18 h.
MLE cells were cultured in Dulbecco's Modified Eagle Medium-F12 (Gibco) supplemented with 10% fetal bovine serum (DMEM-10). 293T cells were cultured in Dulbecco's Modified Eagle Medium (Gibco) supplemented with 10% fetal bovine serum (DMEM-10). MRC5 cells were cultured in Eagle's Minimum Essential Medium (Gibco) supplemented with 10% fetal bovine serum (EMEM-10). For protein expression in MLE cells, nucleofection was used following Amaxa's protocol. For protein overexpression in 293T cells, Fugene6HD transfection reagents were used following the manufacturer's protocol. […]

As to `CC(NC(=O)c1ccc(NS(=O)(=O)c2ccc3[nH]c(=O)[nH]c3c2)cc1)C(=O)N(C)C` (stereo not shown) [BC-1485], the PIAS4 protein half-life entry is recorded as “stabilized PIAS4 by extending its half-life”.

Source of the values: patent US10968183B2, “Small molecule FIEL1 inhibitor in inflammatory and fibrotic lung injury” (UNIVERSITY OF PITTSBURGH—OF THE COMMONWEALTH SYSTEM OF …, priority 2015, dated 2021).
